Where “and” joins values, the source holds several entries; their conditions need not be identical. Equal entries are not always repeated.
These compounds were tested against Plk1 (Homo sapiens, UniProt P53350) (assay: biochemical).
Chain of Plk1 (P53350 20-338): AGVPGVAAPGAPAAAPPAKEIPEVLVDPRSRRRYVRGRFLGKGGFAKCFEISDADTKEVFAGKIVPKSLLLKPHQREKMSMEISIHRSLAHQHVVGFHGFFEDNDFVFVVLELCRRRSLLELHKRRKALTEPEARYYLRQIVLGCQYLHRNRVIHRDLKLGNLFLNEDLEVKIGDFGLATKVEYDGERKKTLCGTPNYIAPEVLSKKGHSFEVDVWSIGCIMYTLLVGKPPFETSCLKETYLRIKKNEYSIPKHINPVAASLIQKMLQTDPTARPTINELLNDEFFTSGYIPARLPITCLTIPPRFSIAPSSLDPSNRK

| Structure (SMILES) | Ki |
| --- | --- |
| CN1C(=O)C(C)(C)CN(C2CCCC2)c2nc(Nc3cccc(-c4cccnc4)c3)ncc21 [Compound I-153, 2-(3-(pyridin-3-yl)phenylamino)-9-cyclopentyl-8,9-dihydro-5,7,7-trimethyl-5H-pyrimido[4,5-b][1,4]diazepin-6(7H)-one] | 10 to 100 nM |
| COc1cc(C(=O)N2CCN(C(=O)OC(C)(C)C)CC2)ccc1Nc1ncc2c(n1)N(C1CCCC1)CCC(=O)N2C [Compound I-7, 4-(9-cyclopentyl-6,7,8,9-tetrahydro-5-methyl-6-oxo-5H-pyrimido[4,5-b][1,4]diazepin-2-ylamino)-3-methoxyphenyl-(4-tert-butoxycarbonypiperazin-1-yl)methanone] | 10 to 100 nM |
| CN1C(=O)C(C)(C)CN(C2CCCC2)c2nc(Nc3ccc4nc[nH]c4c3)ncc21 [Compound I-43, 2-(1H-benzo[d]imidazol-6-ylamino)-9-cyclopentyl-8,9-dihydro-5,7,7-trimethyl-5H-pyrimido[4,5-b][1,4]diazepin-6(7H)-one] | 10 to 100 nM |
| CNC(=O)c1ccc(Nc2ncc3c(n2)N(CC2CNCCO2)CC(C)(C)C(=O)N3C)c(OC)c1 (stereo not drawn) [Compound I-192, 3-methoxy-N-methyl-4-(5,7,7-trimethyl-9-(morpholin-2-ylmethyl)-6-oxo-6,7,8,9-tetrahydro-5H-pyrimido[4,5-b][1,4]diazepin-2-ylamino)benzamide] | < 10 nM and 10 to 100 nM |
| COc1cc(C(=O)NC(C)(C)CO)ccc1Nc1ncc2c(n1)N(C1CCCC1)CC1(CC1)C(=O)N2C [Compound I-271, 4-(9′-cyclopentyl-5′-methyl-6′-oxo-5′,6′,8′,9′-tetrahydrospiro[cyclopropane-1,7′-pyrimido[4,5-b][1,4]diazepine]-2′-ylamino)-N-(1-hydroxy-2-methylpropan-2-yl)-3-methoxybenzamide] | < 10 nM |
| COc1cc(C(=O)NCC2CCCCC2)ccc1Nc1ncc2c(n1)N(C1CCCC1)CC(C)(C)C(=O)N2C [Compound I-196, N-(cyclohexylmethyl)-4-(9-cyclopentyl-5,7,7-trimethyl-6-oxo-6,7,8,9-tetrahydro-5H-pyrimido[4,5-b][1,4]diazepin-2-ylamino)-3-methoxybenzamide] | < 10 nM |
| COC(=O)Nc1cccc(Nc2ncc3c(n2)N(C2CCCC2)CC(C)(C)C(=O)N3C)c1 [Compound I-155] | 10 to 100 nM |
| CCCNC(=O)c1ccc(Nc2ncc3c(n2)N(C2CCCC2)CC(C)(C)C(=O)N3C)c(OC)c1 [Compound I-218, 4-(9-cyclopentyl-5,7,7-trimethyl-6-oxo-6,7,8,9-tetrahydro-5H-pyrimido[4,5-b][1,4]diazepin-2-ylamino)-3-methoxy-N-propylbenzamide] | < 10 nM |
| CN1C(=O)C(C)(C)CN(C2CCCC2)c2nc(Nc3cccc(NS(C)(=O)=O)c3)ncc21 [Compound I-150, N-[3-(9-cyclopentyl-5,7,7-trimethyl-6-oxo-6,7,8,9-tetrahydro-5H-pyrimido[4,5-b][1,4]diazepin-2-ylamino)-phenyl]-methanesulfonamide] | 10 to 100 nM |

Further lines, results first:

| Ki | Structure (SMILES) |
| --- | --- |
| < 10 nM | COc1cc(C(=O)N[C@H]2CC[C@H](O)CC2)ccc1Nc1ncc2c(n1)N(C1CCCC1)CC1(CC1)C(=O)N2C [Compound I-251, 4-(9′-cyclopentyl-5′-methyl-6′-oxo-5′,6′,8′,9′-tetrahydrospiro[cyclopropane-1,7′-pyrimido[4,5-b][1,4]diazepine]-2′-ylamino)-N-((1R,4R)-4-hydroxycyclohexyl)-3-methoxybenzamide] |
| < 10 nM | COc1cc(C(=O)Nc2cnccn2)ccc1Nc1ncc2c(n1)N(C1CCCC1)CC(C)(C)C(=O)N2C [Compound I-224, 4-(9-cyclopentyl-5,7,7-trimethyl-6-oxo-6,7,8,9-tetrahydro-5H-pyrimido[4,5-b][1,4]diazepin-2-ylamino)-3-methoxy-N-(pyrazin-2-yl)benzamide] |
| < 10 nM | COc1cc(C(=O)NCC2CC2)ccc1Nc1ncc2c(n1)N(C1CCCC1)CC(C)(C)C(=O)N2C [Compound I-131, 4-(9-cyclopentyl-6,7,8,9-tetrahydro-5,7,7-trimethyl-6-oxo-5H-pyrimido[4,5-b][1,4]diazepin-2-ylamino)-N-(cyclopropylmethyl)-3-methoxybenzamide] |
| < 10 nM | COc1cc(C(=O)N[C@H]2CCOC2)ccc1Nc1ncc2c(n1)N(C1CCCC1)CC(C)(C)C(=O)N2C [Compound I-172, 4-(9-cyclopentyl-6,7,8,9-tetrahydro-5,7,7-trimethyl-6-oxo-5H-pyrimido[4,5-b][1,4]diazepin-2-ylamino)-N—((S)-tetrahydrofuran-3-yl)-3-methoxybenzamide] |
| < 10 nM | COc1cc(C(=O)NCCc2cncn2C)ccc1Nc1ncc2c(n1)N(C1CCCC1)CC(C)(C)C(=O)N2C [Compound I-27, 4-(9-cyclopentyl-6,7,8,9-tetrahydro-5,7,7-trimethyl-6-oxo-5H-pyrimido[4,5-b][1,4]diazepin-2-ylamino)-3-methoxy-N-(2-(1-methyl-1H-imidazo-5-yl)ethyl)benzamide] |
| < 10 nM | COc1cc(C(=O)NC2CCN(C(C)(C)C)CC2)ccc1Nc1ncc2c(n1)N(C1CCCC1)CC(C)(C)C(=O)N2C [Compound I-71, 4-(9-cyclopentyl-6,7,8,9-tetrahydro-5,7,7-trimethyl-6-oxo-5H-pyrimido[4,5-b][1,4]diazepin-2-ylamino)-N-(1-tert-butylpiperidin-4-yl)-3-methoxybenzamide] |
| < 10 nM | COc1cc(C(=O)NCCCN2CCN(C)CC2)ccc1Nc1ncc2c(n1)N(C1CCCC1)CC(C)(C)C(=O)N2C [Compound I-28, 4-(9-cyclopentyl-6,7,8,9-tetrahydro-5,7,7-trimethyl-6-oxo-5H-pyrimido[4,5-b][1,4]diazepin-2-ylamino)-3-methoxy-N-(3-(4-methylpiperazin-1-yl)propyl)benzamide] |
| < 10 nM | COc1cc(C(=O)NCc2ccc(S(C)(=O)=O)cc2)ccc1Nc1ncc2c(n1)N(C1CCCC1)CC(C)(C)C(=O)N2C [Compound I-214, 4-(9-cyclopentyl-5,7,7-trimethyl-6-oxo-6,7,8,9-tetrahydro-5H-pyrimido[4,5-b][1,4]diazepin-2-ylamino)-3-methoxy-N-(4-(methylsulfonyl)benzyl)benzamide] |
| < 10 nM | COc1cc(C(=O)NCC#N)ccc1Nc1ncc2c(n1)N(C1CCCC1)CC(C)(C)C(=O)N2C [Compound I-233, N-(cyanomethyl)-4-(9-cyclopentyl-5,7,7-trimethyl-6-oxo-6,7,8,9-tetrahydro-5H-pyrimido[4,5-b][1,4]diazepin-2-ylamino)-3-methoxybenzamide] |
| < 10 nM | COc1cc(C(=O)NCC2CCC2)ccc1Nc1ncc2c(n1)N(C1CCCC1)CC(C)(C)C(=O)N2C [Compound I-246, N-(cyclobutylmethyl)-4-(9-cyclopentyl-5,7,7-trimethyl-6-oxo-6,7,8,9-tetrahydro-5H-pyrimido[4,5-b][1,4]diazepin-2-ylamino)-3-methoxybenzamide] |
| < 10 nM | COC(=O)Nc1ccc(Nc2ncc3c(n2)N(C2CCCC2)CC(C)(C)C(=O)N3C)c(OC)c1 [Compound I-103, Methyl 4-(9-cyclopentyl-5,7,7-trimethyl-6-oxo-6,7,8,9-tetrahydro-5H-pyrimido[4,5-b][1,4]diazepin-2-ylamino)-3-methoxyphenylcarbamate] |
| < 10 nM | CNC(=O)c1ccc(Nc2ncc3c(n2)N([C@H]2CCOC2)CC(C)(C)C(=O)N3C)c(OC)c1 [Compound I-180, 4-(6,7,8,9-tetrahydro-9-((S)-tetrahydrofuran-3-yl)-5,7,7-trimethyl-6-oxo-5H-pyrimido[4,5-b][1,4]diazepin-2-ylamino)-3-methoxy-N-methylbenzamide] |
